Values after ≈ are worked out from the molar mass of the structure shown.
How the values were obtained:
Staphylococcus aureus [1] = assay: Antibacterial activity against methicillin resistant Staphylococcus aureus ATCC 33591 assessed as inhibition of bacterial growth incubated for 18 to 24 hrs by broth microdilution method; format: functional; conditions: time 18-24 hrs
Staphylococcus aureus [2] = assay: Antibacterial activity against Staphylococcus aureus ATCC 29213 assessed as inhibition of bacterial growth incubated for 18 to 24 hrs by broth microdilution method; format: functional; conditions: time 18-24 hrs
[3] = tested on: Staphylococcus epidermidis; assay: Antibacterial activity against methicillin resistant Staphylococcus epidermidis clinical isolate 19-5 assessed as inhibition of bacterial growth incubated for 18 to 24 hrs by broth microdilution method; format: functional; conditions: time 18-24 hrs
[4] = tested on: Staphylococcus epidermidis; assay: Antibacterial activity against methicillin resistant Staphylococcus epidermidis clinical isolate 19-6 assessed as inhibition of bacterial growth incubated for 18 to 24 hrs by broth microdilution method; format: functional; conditions: time 18-24 hrs
Escherichia coli [5] = assay: Antibacterial activity against Escherichia coli ATCC BAA-2523 assessed as inhibition of bacterial growth incubated for 18 to 24 hrs by broth microdilution method; format: functional; conditions: time 18-24 hrs
Escherichia coli [6] = assay: Antibacterial activity against Escherichia coli NCTC 13353 assessed as inhibition of bacterial growth incubated for 18 to 24 hrs by broth microdilution method; format: functional; conditions: time 18-24 hrs
Escherichia coli [7] = assay: Antibacterial activity against Escherichia coli clinical isolate 19-2 assessed as inhibition of bacterial growth incubated for 18 to 24 hrs by broth microdilution method; format: functional; conditions: time 18-24 hrs
Escherichia coli [8] = assay: Antibacterial activity against KPC producing Escherichia coli ATCC BAA-2340 assessed as inhibition of bacterial growth incubated for 18 to 24 hrs by broth microdilution method; format: functional; conditions: time 18-24 hrs
Klebsiella pneumoniae [9] = assay: Antibacterial activity against carbapenem resistant Klebsiella pneumoniae clinical isolate 19-15 assessed as inhibition of bacterial growth incubated for 18 to 24 hrs by broth microdilution method; format: functional; conditions: time 18-24 hrs
Klebsiella pneumoniae [10] = assay: Antibacterial activity against carbapenem resistant Klebsiella pneumoniae clinical isolate 19-17 assessed as inhibition of bacterial growth incubated for 18 to 24 hrs by broth microdilution method; format: functional; conditions: time 18-24 hrs
Klebsiella pneumoniae [11] = assay: Antibacterial activity against KPC producing Klebsiella pneumoniae ATCC BAA-1705 assessed as inhibition of bacterial growth incubated for 18 to 24 hrs by broth microdilution method; format: functional; conditions: time 18-24 hrs
Pseudomonas aeruginosa [12] = assay: Antibacterial activity against Pseudomonas aeruginosa clinical isolate 19-1 assessed as inhibition of bacterial growth incubated for 18 to 24 hrs by broth microdilution method; format: functional; conditions: time 18-24 hrs
Pseudomonas aeruginosa [13] = assay: Antibacterial activity against carbapenem resistant Pseudomonas aeruginosa clinical isolate 19-3 assessed as inhibition of bacterial growth incubated for 18 to 24 hrs by broth microdilution method; format: functional; conditions: time 18-24 hrs
Pseudomonas aeruginosa [14] = assay: Antibacterial activity against carbapenem resistant Pseudomonas aeruginosa clinical isolate 17-1 assessed as inhibition of bacterial growth incubated for 18 to 24 hrs by broth microdilution method; format: functional; conditions: time 18-24 hrs
Pseudomonas aeruginosa [15] = assay: Antibacterial activity against Pseudomonas aeruginosa ATCC 27853 assessed as inhibition of bacterial growth incubated for 18 to 24 hrs by broth microdilution method; format: functional; conditions: time 18-24 hrs
Acinetobacter baumannii [16] = assay: Antibacterial activity against carbapenem resistant Acinetobacter baumannii clinical isolate 19-8 assessed as inhibition of bacterial growth incubated for 18 to 24 hrs by broth microdilution method; format: functional; conditions: time 18-24 hrs
Acinetobacter baumannii [17] = assay: Antibacterial activity against oxacillinase-27 producing Acinetobacter baumannii NCTC 13304 assessed as inhibition of bacterial growth incubated for 18 to 24 hrs by broth microdilution method; format: functional; conditions: time 18-24 hrs
[18] = Cytotoxicity against human HK-2 cells assessed as inhibition of cell growth incubated for 72 hrs by CCK-8 assay; format: toxicity, cell-based
[19] = Selectivity index, ratio of IC50 for cytotoxicity against human HK-2 cells to MIC for antibacterial activity against Escherichia coli ATCC BAA-2523; format: toxicity, cell-based

## CCCCCCCCC(=O)N[C@H](CCN)C(=O)N[C@H]1CCNC(=O)[C@H](CC(C)C)NC(=O)[C@H](CCN)NC(=O)[C@H](CCN)NC(=O)[C@H](CC(C)C)NC(=O)[C@@H](CC(C)C)NC(=O)[C@H](CCN)NC1=O
Staphylococcus aureus [1]
  MIC: > 64 µg/mL
Staphylococcus aureus [2]
  MIC: > 64 µg/mL
[3]
  MIC: 4 µg/mL (≈ 4.08 µM)
[4]
  MIC: 16 µg/mL (≈ 16.3 µM)
Escherichia coli [5]
  MIC: 16 µg/mL (≈ 16.3 µM)
Escherichia coli [6]
  MIC: 16 µg/mL (≈ 16.3 µM)
Escherichia coli [7]
  MIC: 32 µg/mL (≈ 32.6 µM)
Escherichia coli [8]
  MIC: 2 µg/mL (≈ 2.04 µM)
Klebsiella pneumoniae [9]
  MIC: 16 µg/mL (≈ 16.3 µM)
Klebsiella pneumoniae [10]
  MIC: 16 µg/mL (≈ 16.3 µM)
Klebsiella pneumoniae [11]
  MIC: 2 µg/mL (≈ 2.04 µM)
Pseudomonas aeruginosa [12]
  MIC: 4 µg/mL (≈ 4.08 µM)
Pseudomonas aeruginosa [13]
  MIC: 4 µg/mL (≈ 4.08 µM)
Pseudomonas aeruginosa [14]
  MIC: 2 µg/mL (≈ 2.04 µM)
Pseudomonas aeruginosa [15]
  MIC: 1 µg/mL (≈ 1.02 µM)
Acinetobacter baumannii [16]
  MIC: 8 µg/mL (≈ 8.16 µM)
Acinetobacter baumannii [17]
  MIC: 8 µg/mL (≈ 8.16 µM)
[18]
  IC50 at 72 h: 77.4 µg/mL (≈ 79 µM)
[19]
  selectivity ratio: 4.8

## CCCCCCCCCC(=O)N[C@H](CCN)C(=O)N[C@H]1CCNC(=O)[C@H]([C@@H](C)O)NC(=O)[C@H](CCN)NC(=O)[C@H](CCN)NC(=O)[C@H](CC(C)C)NC(=O)[C@@H](CC(C)C)NC(=O)[C@H](CCCCN)NC1=O
Staphylococcus aureus [1]
  MIC: > 64 µg/mL
Staphylococcus aureus [2]
  MIC: > 64 µg/mL
[3]
  MIC: 8 µg/mL (≈ 7.92 µM)
[4]
  MIC: 32 µg/mL (≈ 31.7 µM)
Escherichia coli [5]
  MIC: > 64 µg/mL
Escherichia coli [6]
  MIC: > 64 µg/mL
Escherichia coli [7]
  MIC: > 64 µg/mL
Escherichia coli [8]
  MIC: > 64 µg/mL
Klebsiella pneumoniae [9]
  MIC: > 64 µg/mL
Klebsiella pneumoniae [10]
  MIC: > 64 µg/mL
Klebsiella pneumoniae [11]
  MIC: > 64 µg/mL
Pseudomonas aeruginosa [12]
  MIC: > 64 µg/mL
Pseudomonas aeruginosa [13]
  MIC: > 64 µg/mL
Pseudomonas aeruginosa [14]
  MIC: > 64 µg/mL
Pseudomonas aeruginosa [15]
  MIC: > 64 µg/mL
Acinetobacter baumannii [16]
  MIC: > 64 µg/mL
Acinetobacter baumannii [17]
  MIC: > 64 µg/mL
[18]
  IC50 at 72 h: 196 µg/mL (≈ 193 µM)
[19]
  selectivity ratio: < 3.1

## CC(C)C[C@@H]1NC(=O)[C@@H](CC(C)C)NC(=O)[C@H](CCN)NC(=O)[C@@H](NC(=O)[C@@H](CCN)NC(=O)CCCCCC(C)(C)C)CCNC(=O)[C@H]([C@@H](C)O)NC(=O)[C@H](CCN)NC(=O)[C@H](CCN)NC1=O
Staphylococcus aureus [1]
  MIC: > 64 µg/mL
Staphylococcus aureus [2]
  MIC: > 64 µg/mL
[3]
  MIC: 8 µg/mL (≈ 8.14 µM)
[4]
  MIC: > 64 µg/mL
Escherichia coli [5]
  MIC: 32 µg/mL (≈ 32.6 µM)
Escherichia coli [6]
  MIC: 32 µg/mL (≈ 32.6 µM)
Escherichia coli [7]
  MIC: 32 µg/mL (≈ 32.6 µM)
Escherichia coli [8]
  MIC: 16 µg/mL (≈ 16.3 µM)
Klebsiella pneumoniae [9]
  MIC: 64 µg/mL (≈ 65.2 µM)
Klebsiella pneumoniae [10]
  MIC: > 64 µg/mL
Klebsiella pneumoniae [11]
  MIC: 32 µg/mL (≈ 32.6 µM)
Pseudomonas aeruginosa [12]
  MIC: 2 µg/mL (≈ 2.04 µM)
Pseudomonas aeruginosa [13]
  MIC: 8 µg/mL (≈ 8.14 µM)
Pseudomonas aeruginosa [14]
  MIC: 8 µg/mL (≈ 8.14 µM)
Pseudomonas aeruginosa [15]
  MIC: 2 µg/mL (≈ 2.04 µM)
Acinetobacter baumannii [16]
  MIC: > 64 µg/mL
Acinetobacter baumannii [17]
  MIC: > 64 µg/mL
[18]
  IC50 at 72 h: 40.4 µg/mL (≈ 41.1 µM)
[19]
  selectivity ratio: 1.3

## CCCCCCC[C@@H](O)CC(=O)N[C@@H](CCN)C(=O)N[C@H](CCN)C(=O)N[C@H]1CCNC(=O)[C@H](CC(C)C)NC(=O)[C@H](CCN)NC(=O)[C@H](CCN)NC(=O)[C@H](Cc2ccccc2)NC(=O)[C@@H](CC(C)C)NC(=O)[C@H](CCN)NC1=O
Staphylococcus aureus [1]
  MIC: 16 µg/mL (≈ 14 µM)
Staphylococcus aureus [2]
  MIC: 8 µg/mL (≈ 6.99 µM)
[3]
  MIC: 1 µg/mL (≈ 0.874 µM)
[4]
  MIC: 4 µg/mL (≈ 3.5 µM)
Escherichia coli [5]
  MIC: 8 µg/mL (≈ 6.99 µM)
Escherichia coli [6]
  MIC: 32 µg/mL (≈ 28 µM)
Escherichia coli [7]
  MIC: 16 µg/mL (≈ 14 µM)
Escherichia coli [8]
  MIC: 16 µg/mL (≈ 14 µM)
Klebsiella pneumoniae [9]
  MIC: 32 µg/mL (≈ 28 µM)
Klebsiella pneumoniae [10]
  MIC: 64 µg/mL (≈ 55.9 µM)
Klebsiella pneumoniae [11]
  MIC: 32 µg/mL (≈ 28 µM)
Pseudomonas aeruginosa [12]
  MIC: 2 µg/mL (≈ 1.75 µM)
Pseudomonas aeruginosa [13]
  MIC: 4 µg/mL (≈ 3.5 µM)
Pseudomonas aeruginosa [14]
  MIC: 2 µg/mL (≈ 1.75 µM)
Pseudomonas aeruginosa [15]
  MIC: 2 µg/mL (≈ 1.75 µM)
Acinetobacter baumannii [16]
  MIC: 16 µg/mL (≈ 14 µM)
Acinetobacter baumannii [17]
  MIC: 16 µg/mL (≈ 14 µM)
[18]
  IC50 at 72 h: 18.5 µg/mL (≈ 16.2 µM)
[19]
  selectivity ratio: 2.3

## CCCCCCCCCC(=O)N[C@H](CCN)C(=O)N[C@H]1CCCNC(=O)[C@H]([C@@H](C)O)NC(=O)[C@H](CCN)NC(=O)[C@H](CCN)NC(=O)[C@H](CC(C)C)NC(=O)[C@@H](CC(C)C)NC(=O)[C@H](CCN)NC1=O
Staphylococcus aureus [1]
  MIC: > 64 µg/mL
Staphylococcus aureus [2]
  MIC: > 64 µg/mL
[3]
  MIC: 4 µg/mL (≈ 4.01 µM)
[4]
  MIC: 32 µg/mL (≈ 32.1 µM)
Escherichia coli [5]
  MIC: 16 µg/mL (≈ 16.1 µM)
Escherichia coli [6]
  MIC: 32 µg/mL (≈ 32.1 µM)
Escherichia coli [7]
  MIC: 16 µg/mL (≈ 16.1 µM)
Escherichia coli [8]
  MIC: 16 µg/mL (≈ 16.1 µM)
Klebsiella pneumoniae [9]
  MIC: 16 µg/mL (≈ 16.1 µM)
Klebsiella pneumoniae [10]
  MIC: 64 µg/mL (≈ 64.2 µM)
Klebsiella pneumoniae [11]
  MIC: 16 µg/mL (≈ 16.1 µM)
Pseudomonas aeruginosa [12]
  MIC: 4 µg/mL (≈ 4.01 µM)
Pseudomonas aeruginosa [13]
  MIC: 2 µg/mL (≈ 2.01 µM)
Pseudomonas aeruginosa [14]
  MIC: 4 µg/mL (≈ 4.01 µM)
Pseudomonas aeruginosa [15]
  MIC: 4 µg/mL (≈ 4.01 µM)
Acinetobacter baumannii [16]
  MIC: > 64 µg/mL
Acinetobacter baumannii [17]
  MIC: > 64 µg/mL
[18]
  IC50 at 72 h: 158 µg/mL (≈ 159 µM)
[19]
  selectivity ratio: 9.9

Source: ChEMBL document CHEMBL5380795, “Design, Synthesis, and Bioactivity Investigation of Cyclic Lipopeptide Antibiotics Containing Eight to Nine Amino Acids” (J Med Chem, 2023)
